Entries after “also recorded” stand apart in the source; their conditions may differ.
Legend:
OV90 = assay: Cell viability assay (CellTiter-Blue), OV90; type: cell-based; conditions: for toxicity of the chemotherapeutic agent with ivospemin co-treatment (cell viability): OV90, 2 μM ivospemin 96 h, chemotherapeutic last 24 h
From the text: (§1) Cell lines, culture conditions, and reagents. Ovarian adenocarcinoma cell lines A2780 and ACRP were maintained in RPMI 1640 containing 10% fetal bovine serum. Ovarian adenocarcinoma lines CaOV-3 and OV90 were maintained in DMEM supplemented with 10% fetal bovine serum. ID8 mouse ovarian surface epithelial cells (MOSE) overexpressing VEGF and β-Defensin (VDID8+) were maintained in RPMI 1640 supplemented with 10% fetal bovine serum. […] All chemotherapeutics were purchased commercially from Sigma-Aldrich (St. Louis, MO).
(§2) Cell viability assays. Cells were seeded in triplicate wells per condition with a total cell count of 2×10^3 cells per well of a 96-well plate and allowed to adhere overnight. Cells then received 100 μL fresh medium with increasing concentrations of ivospemin. Following 96 hours of ivospemin monotherapy, 20 μL of CellTiter-Blue reagent (Promega, Madison, WI) was added, and following a 3-hour incubation, the fluorescence was measured in black, clear-bottom plates at 560Ex/590Em on a SpectraMax M5 (Molecular Devices, Sunnyvale CA). Wells containing medium alone were used as background controls. The combination chemotherapy/ivospemin experiment conditions were identical except following 72 hours of ivospemin exposure, cells received fresh medium with ivospemin and the appropriate chemotherapeutic. After an additional 24 hours (96 total hours of ivospemin, 24 hours of chemotherapy), cell viability was determined using the CellTiter-Blue cell viability assay. Results are presented as percentages relative to untreated cells. Each bar is an average of at least 3 independent biological experiments (each experiment is noted by an individual point).

[1] = tested on: ovarian adenocarcinoma cell lines; assay: Cell viability, ovarian adenocarcinoma cell lines taken together; type: cell-based; conditions: for added in vitro toxicity/benefit of the chemotherapeutic over ivospemin (SBP-101) alone: cisplatin-sensitive and cisplatin-resistant ovarian cancer cell lines
From the text: as §1, §2
The cisplatin-sensitive ovarian adenocarcinoma lines, A2780 and OV90 (FIG. 4A), and the cisplatin-resistant ovarian adenocarcinoma lines, ACRP and CaOV-3 (FIG. 4B), were treated for 96 hours with concentrations of ivospemin ranging from 500 nM to 10 μM. […] These four ovarian adenocarcinoma lines were then treated with various chemotherapeutic agents including gemcitabine (50 nM), topotecan (50 nM), paclitaxel (2 nM) and docetaxel (2 nM). These agents represent standard of care chemotherapeutic options used with some regularity in patients with platinum-resistant ovarian cancer. Cells were treated with three increasing concentrations of each chemotherapy alone to determine an appropriate dose prior to combination studies.

SSAT = SSAT activity in treated ovarian adenocarcinoma line; type: cell-based, human; conditions: ivospemin 5 μM, doxorubicin 500 nM, 48 hours
Experimental: (§3) FIG. 11. […] The activity of the polyamine catabolic enzyme SSAT and the polyamine biosynthetic enzyme ODC was evaluated.
(§4) The activity of polyamine catabolic enzyme SSAT and polyamine biosynthetic enzyme ODC were evaluated.

ODC = ODC activity in treated ovarian adenocarcinoma line; type: cell-based, human; conditions: ivospemin 5 μM, doxorubicin 500 nM, 48 hours
Experimental: as §3, §4

[2] = in vivo; cited from earlier work
[3] = tested on: VDID8+ syngeneic ovarian epithelial cancer cells; assay: VDID8+ syngeneic mouse model of ovarian cancer (survival, ascites); conditions: for effect on survival as single agent / average ascites volume at first drain: monotherapy; for effect on survival as single agent: VDID8+ model; for average time between VDID8+ cell injection and ascites formation: 15% weight gain or visible abdominal swelling
Experimental: Syngeneic mouse model. Female C57BL/6J wild-type mice (7-8 weeks old, The Jackson Laboratory) were housed at the Johns Hopkins Sidney Kimmel Comprehensive Cancer Center Animal Resources Core and cared for in accordance with the policies set forth by the Johns Hopkins University Animal Care and Use Committee. VEGF-β-Defensin ID8 (VDID8+) syngeneic mouse ovarian surface epithelial cells (first developed by Dr. Katherine Roby) were injected intraperitoneally into C57BL/6 mice (350,000 cells/mouse) (Roby et al., 2000). Treatment of mice began three days following VDID8^+ injection. Mice in the combination study were treated with the following dosing schedule: 24 mg/kg ivospemin 2qw×3, alternating weeks; 30 mg/kg gemcitabine qw×4; 1 mg/kg topotecan 3qw×4. All drugs were administered intraperitoneally. Following production of palpable ascites fluid or a 15% weight gain, animals were drained of their ascites fluid, which was measured as a marker for tumor burden. Decisions for subsequent drains was determined by the same criteria. No animals were drained more than once a week, and animals who survived to a fourth drain were subsequently euthanized.
Statistical analysis. All statistical testing was completed using GraphPad Prism software (v9.5.1, La Jolla, CA). […] Multiple testing correction was performed based on the Benjamini-Hochberg method. […] All mouse survival curves were analyzed using the log-rank (Mantel-Cox) test. Mouse ascites data were analyzed by one-way ANOVA and then individual comparisons were analyzed by two-sided Welch's t-tests unless otherwise specified. Multiple testing correction was performed based on the Benjamini-Hochberg method. […] P-value indications are as follows: *<0.05; **<0.01; ***<0.001; ****<0.0001.

tumor putrescine levels = conditions: eflornithine infusion; cited from earlier work
A2780 = assay: Cell viability assay (CellTiter-Blue), A2780; type: cell-based; conditions: for toxicity of the chemotherapeutic agent with ivospemin co-treatment (cell viability): A2780, 2 μM ivospemin 96 h, gemcitabine 50 nM, topotecan 50 nM, paclitaxel 2 nM, docetaxel 2 nM last 24 h
From the text: as §1, §2

CaOV-3 = assay: Cell viability assay (CellTiter-Blue), CaOV-3; type: cell-based; conditions: for toxicity of the chemotherapeutic agent with ivospemin co-treatment (cell viability): CaOV-3, 2 μM ivospemin 96 h, chemotherapeutic last 24 h
From the text: as §1, §2

ACRP = assay: Cell viability assay (CellTiter-Blue), ACRP; type: cell-based; conditions: for toxicity of the chemotherapeutic agent with ivospemin co-treatment (cell viability): 2 μM ivospemin 96 h, chemotherapeutic last 24 h
From the text: as §1, §2

VDID8+ cells = conditions: NSG mice

For `CC(=O)O[C@@]12CO[C@@H]1C[C@H](O)[C@@]1(C)C(=O)[C@H](O)C3=C(C)[C@@H](OC(=O)[C@H](O)[C@@H](NC(=O)OC(C)(C)C)c4ccccc4)C[C@@](O)([C@@H](OC(=O)c4ccccc4)[C@H]21)C3(C)C` [docetaxel], the “toxicity of the chemotherapeutic agent with ivospemin co-treatment (cell viability)” value (shortened to “toxicity of the chemotherapeutic agent”) (OV90) was “did not increase” and the “added in vitro toxicity/benefit of the chemotherapeutic over ivospemin (SBP-101) alone” value [1] was “little to no benefit; also recorded: did not have any added benefit”.
For `COc1cccc2c1C(=O)c1c(O)c3c(c(O)c1C2=O)C[C@@](O)(C(=O)CO)C[C@@H]3OC1CC(N)C(O)C(C)O1` (stereo partly drawn) [doxorubicin, (8S,10S)-10-(4-amino-5-hydroxy-6-methyl-tetrahydro-2H-pyran-2-yloxy)-6,8,11-trihydroxy-8-(2-hydroxyacetyl)-1-methoxy-7,8,9,10-tetrahydrotetracene-5,12-dione], the SSAT activity (SSAT) is listed as “increases SSAT activity”, the ODC activity (ODC) is listed as “does not have any effect” and the “nausea and vomiting, share of people treated” value [2] is listed as 30-90%. For the same compound, the median survival ([3]; ivospemin 24 mg/kg 2qw×4 alternating weeks, doxorubicin 0.5 mg/kg 2qw×4) was 96 days and the “effect on survival as single agent” value [3] was “significantly increased”.
In the case of `NCCCC(N)(C(=O)O)C(F)F` (stereo not shown) [eflornithine, 2,5-diamino-2-(difluoromethyl) pentanoic acid], the “decrease in tumor putrescine levels” value (tumor putrescine levels) is given as 90%.
For `Nc1ccn([C@@H]2O[C@H](CO)[C@@H](O)C2(F)F)c(=O)n1` [gemcitabine], the “toxicity of the chemotherapeutic agent” value (OV90) was “did increase; also recorded: increased the toxicity”, the “toxicity of the chemotherapeutic agent” value (A2780) was “significantly exceeded the effect of ivospemin alone” and the “toxicity of the chemotherapeutic agent” value (CaOV-3) was “significantly increased; also recorded: increased the toxicity”. For the same compound, the “toxicity of the chemotherapeutic agent” value (ACRP) was “greater toxicity than ivospemin alone; also recorded: significantly exceeded the effect of ivospemin alone”, the “added in vitro toxicity/benefit of the chemotherapeutic over ivospemin (SBP-101) alone” value [1] was “increased ivospemin toxicity; also recorded: increased the in vitro toxicity of SBP-101” and the “average time between VDID8+ cell injection and ascites formation” value [3] was 41.7 days. For the same compound, the “average ascites volume at first drain” value [3] was 2.03 mL, the “effect on survival as single agent” value [3] was “Neither gemcitabine nor topotecan produced a statistically significant survival benefit” and the “effect on survival as single agent” value ([3]; listed as Gemcitabine) was “little effect”.
In the case of `CCNCCC(O)CNCCCCNCC(O)CCNCC` (stereo not shown) [ivospemin, 3,8,13,18-tetraazaicosane-6,15-diol], the IC50 (OV90; Homo sapiens, OV-90, ivospemin 96 hours, OV90, cisplatin sensitive) is reported as 3.24 µM, the IC50 (A2780; Homo sapiens, ivospemin 96 hours, A2780, cisplatin sensitive) is reported as 0.95 µM and the IC50 (CaOV-3; Homo sapiens, ivospemin 96 hours, CaOV-3, cisplatin resistant) is reported as 2.56 µM. For the same compound, the IC50 (ACRP; ivospemin 96 hours, cisplatin resistant) was 1.41 µM, the IC50 ([1]; 96 hours, A2780, OV90, ACRP, CaOV-3, read-out: IC50 values, all four lines) was 0.95 to 3.24 µM and the SSAT activity (SSAT) was “increases SSAT activity”. The SSAT activity (SSAT; listed as SBP-101) was “increase SSAT activity”, the ODC activity (ODC) was “depression of ODC activity” and the ODC activity (ODC; listed as SBP-101) was “decreases ODC activity”. For the same compound, the “tumor burden and ascites formation” value (VDID8+ cells) was “Neither ivospemin alone nor the combination treatment decrease tumor burden or delayed ascites formation”, the “average time between VDID8+ cell injection and ascites formation” value [3] was 39.5 days and the median survival ([3]; days post-injection, ivospemin 24 mg/kg 2qw×3 alternating weeks, gemcitabine 30 mg/kg qw×4, topotecan 1 mg/kg 3qw×4, i.p.) was 52 days. For the same compound, the “increase in median survival compared to untreated (control) animals” value ([3]; gemcitabine/topotecan combination study) was 20%, the “average ascites volume at first drain” value [3] was 1.15 mL and the “effect on survival as single agent” value ([3]; listed as SBP-101) was “marked increase; also recorded: significantly increased”.
With `CC(=O)O[C@H]1C(=O)[C@@]2(C)[C@H]([C@H](OC(=O)c3ccccc3)[C@]3(O)C[C@H](OC(=O)[C@H](O)[C@@H](NC(=O)c4ccccc4)c4ccccc4)C(C)=C1C3(C)C)[C@]1(OC(C)=O)CO[C@@H]1C[C@@H]2O` [paclitaxel] the “toxicity of the chemotherapeutic agent” value (OV90) was “did not increase”, the “added in vitro toxicity/benefit of the chemotherapeutic over ivospemin (SBP-101) alone” value [1] was “little to no benefit” and the “added in vitro toxicity/benefit of the chemotherapeutic over ivospemin (SBP-101) alone” value ([1]; listed as Paclitaxel) was “did not have any added benefit”.
With `CC[C@@]1(O)C(=O)OCc2c1cc1n(c2=O)Cc2cc3c(CN(C)C)c(O)ccc3nc2-1` [topotecan] the “toxicity of the chemotherapeutic agent” value (OV90) was “did increase; also recorded: increased the toxicity”, the “toxicity of the chemotherapeutic agent” value (A2780) was “significantly exceeded the effect of ivospemin alone” and the “toxicity of the chemotherapeutic agent” value (CaOV-3) was “significantly increased; also recorded: increased the toxicity”. For the same compound, the “toxicity of the chemotherapeutic agent” value (ACRP) was “greater toxicity than ivospemin alone; also recorded: significantly exceeded the effect of ivospemin alone”, the “added in vitro toxicity/benefit of the chemotherapeutic over ivospemin (SBP-101) alone” value [1] was “increased ivospemin toxicity; also recorded: increased the in vitro toxicity of SBP-101” and the “average time between VDID8+ cell injection and ascites formation” value [3] was 43.4 days. For the same compound, the “average ascites volume at first drain” value [3] was 3.19 mL and the “effect on survival as single agent” value [3] was “Neither gemcitabine nor topotecan produced a statistically significant survival benefit; also recorded: little effect”.
